Results from patent publication US10501438B2, “Aryl-substituted dihydroquinolinones, their preparation and their use as pharmaceuticals” (NEOMED Institute, priority 2015, dated 2019).

What follows are compounds tested on human C-Myc transcription in MV-4-11 cells (assay: Transcription of human C-Myc in human leukemic MV-4-11 cells (QuantiGene 2.0)). Conditions: Homo sapiens, MV4-11, 4 h, inhibition of C-Myc mRNA, 4 hours treatment.
Format: cell-based
Experimental: b) Transcription of Human C-Myc in Human Leukemic MV-4-11 Cells:
The effect of compounds on transcription of human C-Myc gene is monitored in human B-myelomonocytic leukemia cell line MV-4-11 (from American Type Culture Collection (ATCC), Manassas, Va., USA) using QuantiGene 2.0 assay kit (Affymetrix, Santa Clara, Calif., USA).
Typically, 8,000 MV-4-11 cells are plated in sterile 96-well plates (Costar #3598 from Fisher Scientific Canada, Ottawa, Ontario, Canada) in Iscove's medium supplemented with 10% fetal bovine serum, glutamine (2 mM), and penicillin (100 I.U.) and streptomycin (100 μg/mL) (all from Wisent Inc., St. Bruno, Quebec, Canada). Compounds are dissolved in DMSO at 30 mM. A series of 1:3 dilutions are first made in DMSO, and further 1:100 dilutions are made in serum-containing cell culture media. The final concentration of DMSO is 0.1% in cell culture media. After cells are treated with various concentrations of test compound for 4 hours, cells are lysed using Quantigene 2.0 sample processing kit (#QS0100). C-Myc mRNA is detected using a QuantiGene 2.0 assay kit (#QS0009) with gene-specific probe to human C-Myc (#SA-50182) following the manufacturer's recommendations. Luminescene signals are read on Flexstation II microplate reader (Molecular Devices, Sunnyvale, Calif., USA).

Row | Structure (SMILES) | IC50 [nM]
1 | Cc1cc(-c2cc3c(c(CN(C)C4CCCC4)c2)NC(=O)CC3)cn(C)c1=O [Compound 97, 8-((cyclopentyl(methyl)amino)methyl)-6-(1,5-dimethyl-6-oxo-1,6-dihydropyridin-3-yl)-3,4-dihydroquinolin-2(1H)-one] | 790
2 | Cc1cc(-c2cc3c(c(O[C@@H](C)c4ccccn4)c2)NC(=O)CC3)cn(C)c1=O [Compound 74a, (S)-6-(1,5-dimethyl-6-oxo-1,6-dihydropyridin-3-yl)-8-(1-(pyridin-2-yl)ethoxy)-3,4-dihydroquinolin-2(1H)-one] | 120
3 | Cc1cc(-c2cc3c(c(OCC4CCCC4)c2)NC(=O)CC3)cn(C)c1=O [Compound 29, 8-(cyclopentylmethoxy)-6-(1,5-dimethyl-6-oxo-1,6-dihydropyridin-3-yl)-3,4-dihydroquinolin-2(1H)-one] | 190
4 | Cc1cc(-c2ccc3c(c2COC2CCC2)CCC(=O)N3)cn(C)c1=O [Compound 67, 5-(cyclobutoxymethyl)-6-(1,5-dimethyl-6-oxo-1,6-dihydropyridin-3-yl)-3,4-dihydroquinolin-2(1H)-one] | 2030
5 | Cc1cc(-c2cc3c(c(NCc4cccnc4)c2)NC(=O)CC3)cn(C)c1=O [Compound 78, 6-(1,5-dimethyl-6-oxo-1,6-dihydropyridin-3-yl)-8-(pyridyl-3-ylmethylamino)-3,4-dihydro-1H-quinolin-2-one] | 100
6 | Cc1cc(-c2cc(COC3CCCC3)c3c(c2)NC(=O)CC3)cn(C)c1=O [Compound 100, 5-((cyclopentyloxy)methyl)-7-(1,5-dimethyl-6-oxo-1,6-dihydropyridin-3-yl)-3,4-dihydroquinolin-2(1H)-one] | 610
7 | Cn1cc(-c2cc3c(c(OCc4ccccn4)c2)NC(=O)CC3)cc(Cl)c1=O [Compound 79, 6-(5-chloro-1-methyl-6-oxo-1,6-dihydropyridin-3-yl)-8-(pyridin-2-ylmethoxy)-3,4-dihydroquinolin-2(1H)-one] | 240
8 | Cc1ccc(COc2cc(-c3cc(C)c(=O)n(C)c3)cc3c2NC(=O)CC3)nc1 [Compound 75, 6-(1,5-dimethyl-6-oxo-1,6-dihydropyridin-3-yl)-8-((5-methylpyridin-2-yl)methoxy)-3,4-dihydroquinolin-2(1H)-one] | 180
9 | Cc1cc(-c2cc3c(c(N(C)Cc4ccccc4)c2)NC(=O)CC3)cn(C)c1=O [Compound 5, 8-[benzyl(methyl)amino]-6-(1,5-dimethyl-6-oxo-3-pyridyl)-3,4-dihydro-1H-quinolin-2-one] | 250
10 | Cc1cc(-c2cc3c(c(OCc4cccnc4)c2)NC(=O)CC3)cn(C)c1=O [Compound 25, 6-(1,5-dimethyl-6-oxo-1,6-dihydropyridin-3-yl)-8-(pyridin-3-ylmethoxy)-3,4-dihydroquinolin-2(1H)-one] | 150
11 | Cc1cc(-c2cc3c(c(OCc4ccccn4)c2)NC(=O)CC3)cn(C)c1=O [Compound 26, 6-(1,5-dimethyl-6-oxo-1,6-dihydropyridin-3-yl)-8-(pyridin-2-ylmethoxy)-3,4-dihydroquinolin-2(1H)-one] | 280
12 | Cc1cc(-c2cc3c(c(Oc4ccccc4)c2)NC(=O)CC3)cn(C)c1=O [Compound 15, 6-(1,5-dimethyl-6-oxo-1,6-dihydropyridin-3-yl)-8-phenoxy-3,4-dihydroquinolin-2(1H)-one] | 2620
13 | Cc1cc(-c2cc3c(c(OCc4cocn4)c2)NC(=O)CC3)cn(C)c1=O [Compound 84, 6-(1,5-dimethyl-6-oxo-1,6-dihydropyridin-3-yl)-8-(oxazol-4-ylmethoxy)-3,4-dihydroquinolin-2(1H)-one] | 510
14 | Cc1cc(-c2cc3c(c(CNC4CCCCC4)c2)NC(=O)CC3)cn(C)c1=O [Compound 24, 8-[(cyclohexylamino)methyl]-6-(1,5-dimethyl-6-oxo-3-pyridyl)-3,4-dihydro-1H-quinolin-2-one] | 830
15 | Cc1cc(-c2ccc3c(c2COC2CCCC2)CCC(=O)N3)cn(C)c1=O [Compound 68, 5-((cyclopentyloxy)methyl)-6-(1,5-dimethyl-6-oxo-1,6-dihydropyridin-3-yl)-3,4-dihydroquinolin-2(1H)-one] | 8560
16 | Cc1cc(-c2cc3c(c(OCC4CCCOC4)c2)NC(=O)CC3)cn(C)c1=O (stereo not drawn) [Compound 54a, 6-(1,5-dimethyl-6-oxo-1,6-dihydropyridin-3-yl)-8-((tetrahydro-2H-pyran-3-yl)methoxy)-3,4-dihydroquinolin-2(1H)-one] | 550
17 | Cc1cc(-c2cc3c(c(OCc4nccs4)c2)NC(=O)CC3)cn(C)c1=O [Compound 83, 6-(1,5-dimethyl-6-oxo-1,6-dihydropyridin-3-yl)-8-(thiazol-2-ylmethoxy)-3,4-dihydroquinolin-2(1H)-one] | 510
18 | Cc1cc(-c2cc3c(c(OCc4ncco4)c2)NC(=O)CC3)cn(C)c1=O [Compound 81, 6-(1,5-dimethyl-6-oxo-1,6-dihydropyridin-3-yl)-8-(oxazol-2-ylmethoxy)-3,4-dihydroquinolin-2(1H)-one] | 530
19 | Cc1cc(-c2cc3c(cc2Cc2cccc(F)c2)NC(=O)CC3)cn(C)c1=O [Compound 85, 6-(1,5-dimethyl-6-oxo-1,6-dihydropyridin-3-yl)-7-(3-fluorobenzyl)-3,4-dihydroquinolin-2(1H)-one] | 350
20 | Cc1cc(-c2cc3c(cc2COC2CCCC2)NC(=O)CC3)cn(C)c1=O [Compound 70, 7-((cyclopentyloxy)methyl)-6-(1,5-dimethyl-6-oxo-1,6-dihydropyridin-3-yl)-3,4-dihydroquinolin-2(1H)-one] | 7820
21 | Cc1cc(-c2ccc3c(c2C(C)c2ccccc2)CCC(=O)N3)cn(C)c1=O (stereo not drawn) [Compound 95, 6-(1,5-dimethyl-6-oxo-1,6-dihydropyridin-3-yl)-5-(1-phenylethyl)-3,4-dihydroquinolin-2(1H)-one] | 30
22 | Cc1cc(-c2cc3c(cc2Cc2ccccc2)CCC(=O)N3)cn(C)c1=O [Compound 31, 6-benzyl-7-(1,5-dimethyl-6-oxo-1,6-dihydropyridin-3-yl)-3,4-dihydroquinolin-2(1H)-one] | 290
23 | Cc1cc(-c2cc3c(c(OC4CCCCC4)c2)NC(=O)CC3)cn(C)c1=O [Compound 16, 8-(cyclohexyloxy)-6-(1,5-dimethyl-6-oxo-1,6-dihydropyridin-3-yl)-3,4-dihydroquinolin-2(1H)-one] | 530
24 | Cc1cc(-c2cc(Cc3ccccc3)c3c(c2)NC(=O)CC3)cn(C)c1=O [Compound 99, 5-benzyl-7-(1,5-dimethyl-6-oxo-1,6-dihydropyridin-3-yl)-3,4-dihydroquinolin-2(1H)-one] | 840
25 | Cc1cc(-c2cc3c(c(COCC(F)(F)F)c2)NC(=O)CC3)cn(C)c1=O [Compound 46, 6-(1,5-dimethyl-6-oxo-1,6-dihydropyridin-3-yl)-8-((2,2,2-trifluoroethoxy)methyl)-3,4-dihydroquinolin-2(1H)-one] | 910
26 | Cc1cc(-c2ccc3c(c2Cc2ccccn2)CCC(=O)N3)cn(C)c1=O [Compound 57, 6-(1,5-dimethyl-6-oxo-1,6-dihydropyridin-3-yl)-5-(pyridin-2-ylmethyl)-3,4-dihydroquinolin-2(1H)-one] | 240
27 | Cc1cc(-c2cc3c(c(OCc4ccncc4)c2)NC(=O)CC3)cn(C)c1=O [Compound 73, 6-(1,5-dimethyl-6-oxo-1,6-dihydropyridin-3-yl)-8-(pyridin-4-ylmethoxy)-3,4-dihydroquinolin-2(1H)-one] | 500
28 | Cc1cc(-c2cc3c(c(O[C@H](C)c4ccccn4)c2)NC(=O)CC3)cn(C)c1=O [Compound 74b, (R)-6-(1,5-dimethyl-6-oxo-1,6-dihydropyridin-3-yl)-8-(1-(pyridin-2-yl)ethoxy)-3,4-dihydroquinolin-2(1H)-one] | 410
29 | Cc1cc(-c2ccc3c(c2COC2CCC2)NC(=O)CC3)cn(C)c1=O [Compound 39, 8-(cyclobutoxymethyl)-7-(1,5-dimethyl-6-oxo-1,6-dihydropyridin-3-yl)-3,4-dihydroquinolin-2(1H)-one] | 9850

Same assay, conditions: inhibition of C-Myc mRNA, 4 hours treatment

Row | Structure (SMILES) | IC50 [nM]
30 | Cc1cc(-c2cc3c(c(OC(C)c4cccnc4)c2)NC(=O)CC3)cn(C)c1=O (single isomer, unassigned) [Compound 92a, 6-(1,5-dimethyl-6-oxo-1,6-dihydropyridin-3-yl)-8-(1-(pyridin-3-yl)ethoxy)-3,4-dihydroquinolin-2(1H)-one] | 90
31 | Cc1cc(-c2cc3c(c(OC(C)c4cccnc4)c2)NC(=O)CC3)cn(C)c1=O (single isomer, unassigned) [Compound 92b, 6-(1,5-dimethyl-6-oxo-1,6-dihydropyridin-3-yl)-8-(1-(pyridin-3-yl)ethoxy)-3,4-dihydroquinolin-2(1H)-one] | 510
32 | Cc1cc(-c2cc3c(c(OCC4CCCOC4)c2)NC(=O)CC3)cn(C)c1=O (stereo not drawn) [Compound 54b, 6-(1,5-dimethyl-6-oxo-1,6-dihydropyridin-3-yl)-8-((tetrahydro-2H-pyran-3-yl)methoxy)-3,4-dihydroquinolin-2(1H)-one] | 800
33 | Cc1cc(-c2cc3c(c(COC4CCCOC4)c2)NC(=O)CC3)cn(C)c1=O (stereo not drawn) [Compound 48b, 6-(1,5-dimethyl-6-oxo-1,6-dihydropyridin-3-yl)-8-(((tetrahydro-2H-pyran-3-yl)oxy)methyl)-3,4-dihydroquinolin-2(1H)-one] | 2740
